Measured values as given in patent US20210023234A1, “ECTONUCLEOTIDE PYROPHOSPHATE-PHOSPHODIESTERASE (ENPP) CONJUGATES AND USES THEREOF” (AbbVie Inc., priority 2018, published 2021).

Legend:
human ENPP-1 enzyme [1] = molecular target: T1, human ENPP-1 enzyme (Homo sapiens, UniProt P22413); experiment: ENPP1 Enzyme Assay with TMP-pNP Substrate (absorbance at 405 nm); type: biochemical; details: read-out: TMP-pNP: % inhibition at 10 uM; 10 uM compound; 200 μM TMP-pNP substrate; 15 ng/well enzyme
T1 construct: purchased R&D Systems
T1 sequence (P22413 1-925): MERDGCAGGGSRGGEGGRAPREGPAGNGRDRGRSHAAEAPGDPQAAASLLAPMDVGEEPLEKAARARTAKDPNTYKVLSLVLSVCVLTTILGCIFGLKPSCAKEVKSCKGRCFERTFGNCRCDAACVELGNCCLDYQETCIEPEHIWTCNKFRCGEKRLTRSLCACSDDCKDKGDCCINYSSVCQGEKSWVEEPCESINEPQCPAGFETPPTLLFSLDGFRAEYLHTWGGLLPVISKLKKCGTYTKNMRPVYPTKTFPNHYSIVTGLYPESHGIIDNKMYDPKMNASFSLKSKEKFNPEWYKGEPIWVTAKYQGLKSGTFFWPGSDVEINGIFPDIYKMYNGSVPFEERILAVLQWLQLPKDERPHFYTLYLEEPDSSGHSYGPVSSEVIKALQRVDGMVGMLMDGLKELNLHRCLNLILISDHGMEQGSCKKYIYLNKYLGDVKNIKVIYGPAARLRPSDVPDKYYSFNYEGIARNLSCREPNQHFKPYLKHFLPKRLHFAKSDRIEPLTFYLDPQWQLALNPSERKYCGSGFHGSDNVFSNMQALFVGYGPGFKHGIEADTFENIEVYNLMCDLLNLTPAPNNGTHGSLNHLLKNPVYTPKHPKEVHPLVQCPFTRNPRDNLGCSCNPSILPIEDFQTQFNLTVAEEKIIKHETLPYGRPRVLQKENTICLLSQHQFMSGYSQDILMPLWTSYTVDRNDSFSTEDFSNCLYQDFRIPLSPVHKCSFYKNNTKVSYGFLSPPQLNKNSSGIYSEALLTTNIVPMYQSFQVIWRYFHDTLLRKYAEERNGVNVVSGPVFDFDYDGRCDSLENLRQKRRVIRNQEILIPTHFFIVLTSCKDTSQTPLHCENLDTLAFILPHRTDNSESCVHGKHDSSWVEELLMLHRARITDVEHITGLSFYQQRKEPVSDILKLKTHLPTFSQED
Description: ENPP1 Enzyme Assay with TMP-pNP Substrate:
ENPP-1 hydrolyzes thymidine 5′monophosphate p-nitrophenyl ester (TMP-pNP) to nucleotide-5′-monophosphate and p-nitrophenol, which is a chromogenic product. The amount of p-nitrophenol product formed is measured using its absorbance at 405 nm, which is directly proportional to enzyme activity. Different concentrations of inhibitors (synthetic molecules #1-7; see Table 1) were pre-incubated with 15 ng/well of human ENPP-1 enzyme (R&D Systems) for 15 minutes at 37° C. The reaction was initiated by adding 200 μM TMP-pNP and incubating for 10 minutes at 37° C. […] The amount of product formed was measured directly ina Tecan® spectrophotometer. Maximal activity control samples (containing enzyme, substrate, and buffer in the absence of ENPP1 inhibitors: MAX) and background control samples (containing enzyme, substrate, and buffer plus a fully inhibitory concentration (3 μM) of the reference ENPP1 Inhibitor, MV-0000002: MIN) are simultaneously evaluated in order to calculate the percent inhibition at each compound concentration as follows: […]
The IC50 values for percent inhibition versus compound concentration were determined by fitting the inhibition curves (percent inhibition versus inhibitor concentration) using a four-parameter variable slope model in GraphPad Prism® software. […]

human ENPP-1 enzyme [2] = molecular target: T1, human ENPP-1 enzyme; experiment: ENPP1 Enzyme Assay with cGAMP Substrate (AMP-Glo); type: biochemical; details: 20 μM 2′3′-cGAMP substrate, 5 ng/well enzyme; for inhibition at 1 µM: 1 uM compound; for inhibition at 10 µM: 10 uM compound
Source text: ENPP1 Enzyme Assay with cGAMP Substrate:
Ectonucleotide pyrophosphatase/phosphodiesterase 1 (ENPP-1) is a transmembrane glycoprotein that hydrolyzes nucleotides and nucleotide derivatives with the formation of nucleoside-5′-monophosphates. ENPP-1 hydrolyzes 2′3′-cGAMP (cGAMP), breaking it down into 5′-AMP and 5′-GMP. The 5′-AMP formed from the reaction is detected using the AMP-Glo® Kit (Promega). The assay kit contains two reagents. The first reagent terminates the enzymatic reaction, removes ATP (using adenylyl cyclase), and converts 5′-AMP produced into ADP (using polyphosphate: AMP phosphotransferase). The second reagent converts ADP to ATP (using adenylate kinase) and generates light from ATP using the luciferin/luciferase reaction. The amount of light measured is proportional to the amount of 5′-AMP produced by ENPP1.
Different concentrations of exemplary ENPP1 inhibitors (synthetic molecules #1-7; see Table 1) were pre-incubated with 5 ng/well of human ENPP-1 enzyme (R&D Systems) for 15 minutes at 37° C. The reaction was initiated by adding 20 μM 2′3′-cGAMP and incubating for 30 minutes at 37° C. The final assay reaction mixture contained a buffer of 50 mM Tris pH 8.0, 250 mM NaCl, 0.5 mM CaCl2, 1 μM ZnCl2 and 1% DMSO. At the end of the incubation, the reaction was stopped by adding 12 μl of AMP-Glo reagent-1 and mixing the reaction uniformly for 5 minutes, followed by incubation at room temperature for one hour. Then 25 μl of AMP Glo reagent-2 was added to the reaction, mixed uniformly with a pipette, and incubated at room temperature for one hour to convert the ADP formed from reagent-1 to ATP and light. The generated light was measured in a Perkin Elmer Victor® instrument. Maximal activity control samples (containing enzyme, substrate, and buffer in the absence of ENPP1 inhibitors: MAX) and background control samples (containing enzyme, substrate, and buffer plus a fully inhibitory concentration (3 μM) of the reference ENPP1 Inhibitor, MV-0000002: MIN) were simultaneously evaluated in order to calculate the percent inhibition at each compound concentration as follows:
% inhibition=(([MAX−MIN]−[COMPOUND−MIN])/[MAX−MIN])*100
The IC50 values for percent inhibition versus compound concentration were determined by fitting the inhibition curves using a four-parameter variable slope model in GraphPad Prism® software. Ki values are derived from the IC50 values using the Cheng-Prusoff equation: […]

SMILES	inhibition at 10 µM (human ENPP-1 enzyme [1]) [%]	inhibition at 1 µM (human ENPP-1 enzyme [2]) [%]	inhibition at 10 µM (human ENPP-1 enzyme [2]) [%]
COc1cc2ncc(C(N)=O)c(N3CCC(CCNS(N)(=O)=O)CC3)c2cc1OC [compound 2, 6,7-dimethoxy-4-(4-(2-(sulfamoylamino)ethyl)piperidin-1-yl)quinoline-3-carboxamide]	≥ 75	≥ 75	
Cn1ncc2c(N3CCC(CCNS(N)(=O)=O)CC3)ncnc21 [compound 3, N-(2-(1-(1-methyl-1H-pyrazolo[3,4-d]pyrimidin-4-yl)piperidin-4-yl)ethyl)sulfonic amide]			≥ 75
COc1cc2ncnc(N3CCC4(CC3)CN(S(N)(=O)=O)C4)c2cc1OC [compound 5, 7-(6,7-dimethoxyquinazolin-4-yl)-2,7-diazaspiro[3.5]nonane-2-sulfonamide]	≥ 75		≥ 75
COc1cc2ncnc(N3CCc4c(cccc4S(N)(=O)=O)C3)c2cc1OC [compound 6, 2-(6,7-dimethoxyquinazolin-4-yl)-1,2,3,4-tetrahydroisoquinoline-5-sulfonamide]		≥ 75	
COc1cc2ncnc(NCCc3cccc(NS(N)(=O)=O)c3)c2cc1OC [compound 7, N-(3-(2-((6,7-dimethoxyquinazolin-4-yl)amino)ethyl)phenyl)sulfonic amide]			≥ 75
